In brackets after ≈: the same amount, converted by molar mass. Read-outs that look alike come from different tables or passages of the source. Marks after values point to notes of the source that are not given here.
What was measured:
[1] = Particle size distribution of tebipenem pivoxil HBr batches by sieve method; format: physicochemical
P. mirabilis = assay: Broth microdilution against US UTI pathogens 2019-2020; format: cell-based; conditions: for % susceptible; CLSI: cefuroxime: oral breakpoint
Protocol: (§1) This study assessed the in vitro activity of tebipenem and comparator agents against Enterobacterales (ENT) responsible for UTIs in the US during 2019-2020. A total of 3,576 ENT recovered from urine samples during the 2019-2020 STEWARD Surveillance Program were included in the study. Isolates were collected from medical centers in all 9 US Census Regions and were centrally tested for susceptibility by reference broth microdilution method. MIC interpretation was performed based on CLSI criteria.

E. coli [2] = assay: Broth microdilution MIC against characterized subsets of UTI E. coli (2018-2020); format: cell-based
Excerpt: Isolates were collected from medical centers in all 9 US Census Regions and tested by broth microdilution. MIC interpretation was based on CLSI. Isolates that met MIC criteria were subjected to genome sequencing, followed by screening of extended-spectrum b-lactamase (ESBL) genes and epidemiology typing (MLST).

[3] = tested on: Enterobacterales overproducing AmpC; assay: Broth microdilution susceptibility of isolates overexpressing AmpC; format: cell-based
Protocol: (§2) Frozen-form broth microdilution panels were manufactured by JMI Laboratories and contained cation-adjusted Mueller-Hinton broth. Quality assurance was performed by sterility checks, colony counts, and testing CLSI recommended quality control reference strains.

E. coli [4] = assay: Broth microdilution against US UTI pathogens 2019-2020; format: cell-based; conditions: E. coli (2,339); for % susceptible; CLSI: cefuroxime: oral breakpoint
Protocol: as §1

Enterobacterales (ENT) = assay: as above; format: cell-based; conditions: All (3,567); for % susceptible; CLSI: cefuroxime: oral breakpoint
Protocol: as §1

K. pneumoniae = assay: as above; format: cell-based; conditions: K. pneumoniae (511); for % susceptible; CLSI: cefuroxime: oral breakpoint
Protocol: as §1

[5] = tested on: P. aeruginosa isolates that overproduced AmpC; assay: Broth microdilution susceptibility of isolates overexpressing AmpC; format: cell-based; conditions: P. aeruginosa (32)
Protocol: as §2

[6] = Enterobacterales (36), read-out: MIC50
[7] = Enterobacterales (36), read-out: MIC90
[8] = Enterobacterales (36), second cefuroxime line, footnote c (not given)

Molecule: Br.C[C@@H](O)[C@H]1C(=O)N2C(C(=O)OCOC(=O)C(C)(C)C)=C(SC3CN(C4=NCCS4)C3)[C@H](C)[C@H]12 [Lot 2]
- particle size distribution, 45 um< [1]: 46%
- particle size distribution, 75 um< [1]: 6%
- particle size distribution, 106 um< [1]: 6%
- particle size distribution, 150 um< [1]: 2%
- particle size distribution, 300 um< [1]: 0%
- particle size distribution, <45 um [1]: 40%

Molecule: Tebipenem pivoxil
- MIC50 (P. mirabilis): 0.12 mg/L
- MIC90 (P. mirabilis): 0.12 mg/L
- concentration inhibiting all PM (P. mirabilis): 0.25 mg/L

Molecule: amoxicillin-clavulanate (2:1) [A/C]
- % susceptible by CLSI M100 criteria (E. coli [2]; CTX-M a): 57.6%
- MIC50 (E. coli [2]; CTX-M a): 8 µg/mL
- MIC90 (E. coli [2]; CTX-M a): 16 µg/mL
- % susceptible by CLSI M100 criteria (E. coli [2]; ESBL (360)): 47.2%
- MIC50 (E. coli [2]; ESBL (360)): 16 µg/mL
- MIC90 (E. coli [2]; ESBL (360)): 32 µg/mL
- % susceptible by CLSI M100 criteria (E. coli [2]; Non-ESBL (2035)): 86.6%
- MIC50 (E. coli [2]; Non-ESBL (2035)): 4 µg/mL
- MIC90 (E. coli [2]; Non-ESBL (2035)): 16 µg/mL
- CLSI %1 ([3]; Enterobacterales (36)): 11.1%
- CLSI % R ([3]; Enterobacterales (36)): 86.1%
- CLSI % S ([3]; Enterobacterales (36)): 2.8%
- MIC50 ([3]; Enterobacterales (36)): >32 μ/ml
- MIC90 ([3]; Enterobacterales (36)): >32 μ/ml
- MIC50 (E. coli [4]): 4000 µg/mL
- MIC90 (E. coli [4]): 16000 µg/mL
- % susceptible; CLSI (E. coli [4]): (80.8) %
- MIC50 (Enterobacterales (ENT)): 4000 µg/mL
- MIC90 (Enterobacterales (ENT)): 32000 µg/mL
- % susceptible; CLSI (Enterobacterales (ENT)): (76.1) %
- MIC50 (K. pneumoniae): 2000 µg/mL
- MIC90 (K. pneumoniae): 16000 µg/mL
- % susceptible; CLSI (K. pneumoniae): (86.7) %
- MIC50 (P. mirabilis; P. mirabilis (235)): 1/1 mg/mL
- MIC90 (P. mirabilis; P. mirabilis (235)): 1/1 mg/mL
- % susceptible; CLSI (P. mirabilis; P. mirabilis (235)): (96.6) %
- % susceptible; CLSI (P. mirabilis; P. mirabilis (235), listed as amoxicillin/clavulanate): 96.6%

Molecule: C[C@@H](O)[C@H]1C(=O)N2C(C(=O)OCOC(=O)C(C)(C)C)=C(SC3CN(C4=NCCS4)C3)[C@H](C)[C@H]12 [Tebipenem pivoxil]
- MIC50 (E. coli [2]): 0.03/- (-) μg/mL

Molecule: C[C@H]1[C@H](NC(=O)/C(=N\OC(C)(C)C(=O)O)c2csc(N)n2)C(=O)N1S(=O)(=O)O [Aztreonam]
- CLSI %1 ([3]; Enterobacterales (36)): 14.3%
- CLSI % R ([3]; Enterobacterales (36)): 54.3%
- CLSI % S ([3]; Enterobacterales (36)): 31.4%
- MIC50 [3, 6]: > 16 µg/mL
- MIC90 [3, 7]: > 16 µg/mL
- CLSI %1 [5]: 31.2%
- CLSI % R [5]: 50.0%
- CLSI % S [5]: 18.8%

Molecule: CN(C)[C@@H]1C(O)=C(C(N)=O)C(=O)[C@@]2(O)C(O)=C3C(=O)c4c(O)cccc4[C@@](C)(O)[C@H]3C[C@@H]12 [Tetracycline]
- CLSI %1 ([3]; Enterobacterales (36)): 5.6%
- CLSI % R ([3]; Enterobacterales (36)): 44.4%
- CLSI % S ([3]; Enterobacterales (36)): 50.0%
- MIC50 [3, 6]: 4 µg/mL (≈ 9 µM)
- MIC90 [3, 7]: > 16 µg/mL

Molecule: CO/N=C(\C(=O)N[C@@H]1C(=O)N2C(C(=O)O)=C(COC(N)=O)CS[C@H]12)c1ccco1 [Cefuroxime]
- MIC50 [3]: > 64 µg/mL
- MIC90 [3]: > 64 µg/mL
- CLSI %1 ([3]; Enterobacterales (36)): 5.6%
- CLSI % R ([3]; Enterobacterales (36)): 94.4%
- CLSI % S ([3]; Enterobacterales (36)): 0.0^b %
- CLSI %1 [3, 8]: 5.6%
- CLSI % R [3, 8]: 94.4%
- CLSI % S [3, 8]: 0.0^c %
- % susceptible; CLSI (E. coli [4]): (63.1) %
- % susceptible; CLSI (Enterobacterales (ENT)): (63.5) %
- % susceptible; CLSI (K. pneumoniae): (75.3) %
- % susceptible; CLSI (P. mirabilis; P. mirabilis (235)): (94.4) %
- % susceptible; CLSI (P. mirabilis; P. mirabilis (235), listed as cefuroxime): 94.4%

Molecule: Cc1nnc(SCC2=C(C(=O)O)N3C(=O)[C@@H](NC(=O)Cn4cnnn4)[C@H]3SC2)s1 [CFZ, cefazolin]
- % susceptible by CLSI M100 criteria (E. coli [2]; CTX-M a): 0.0%
- % susceptible by CLSI M100 criteria (E. coli [2]; ESBL (360)): 0.6%
- MIC50 (E. coli [2]; Escherichia coli, CTX-M a, read-out: MIC50): > 32 µg/mL
- MIC90 (E. coli [2]; Escherichia coli, CTX-M a, read-out: MIC90): > 32 µg/mL
- MIC50 (E. coli [2]; Escherichia coli, ESBL (360), read-out: MIC50): > 32 µg/mL
- MIC90 (E. coli [2]; Escherichia coli, ESBL (360), read-out: MIC90): > 32 µg/mL
- MIC50 (E. coli [2]; Escherichia coli, Non-ESBL (2035), read-out: MIC50): 2 µg/mL (≈ 4.4 µM)
- MIC90 (E. coli [2]; Escherichia coli, Non-ESBL (2035), read-out: MIC90): 8 µg/mL (≈ 17.6 µM)
- % susceptible by CLSI M100 criteria (E. coli [2]; Non-ESBL (2035)): 96.4%

Molecule: C[C@@H](O)[C@H]1C(=O)N2C(C(=O)O)=C(SCCN=CN)C[C@H]12 [Imipenem]
- MIC50 [3]: 0.25 µg/mL (≈ 0.835 µM)
- MIC90 [3]: 0.5 µg/mL (≈ 1.67 µM)
- CLSI %1 ([3]; Enterobacterales (36)): 0.0%
- CLSI % R ([3]; Enterobacterales (36)): 0.0%
- CLSI % S ([3]; Enterobacterales (36)): 100.0%
- MIC50 ([3]; Enterobacterales (36)): 0.25 μ/ml
- MIC90 ([3]; Enterobacterales (36)): 0.5 μ/ml
- MIC range ([3]; Enterobacterales (36)): ≤0.12 to 1 μ/ml
- CLSI %1 [5]: 0.0%
- CLSI % R [5]: 3.1%
- CLSI % S [5]: 96.9%
- MIC range [5]: 0.5 to 8 μ/ml

From patent publication US12048691B2 (SPERO THERAPEUTICS, INC., priority 2020, dated 2024)
